# Assay results from PubChem BioAssay (NCI).
# Values joined by “and” are separate entries in the source; they are usually repeats but may differ in a detail not shown here. Equal values may be shown once.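 Test compounds were applied to cells in 96-well plates for 48 hours at 5 doses. Abbreviation: GI50, concentration required for 50% inhibition of growth. TGI denotes the concentration required for complete inhibition of growth.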
# Tests used:
# Experiment in all cases: NCI tumour cell line growth inhibition, 48 h
# MCF7 breast = test system: MCF7 breast
# SW-620 colon = test system: SW-620 colon
# RXF 393 renal = test system: RXF 393 renal
# SF-295 CNS = test system: SF-295 CNS
# HCT-15 colon = test system: HCT-15 colon
# T-47D breast = test system: T-47D breast
# SK-MEL-2 melanoma = test system: SK-MEL-2 melanoma
# SK-OV-3 ovarian = test system: SK-OV-3 ovarian
Compound,GI50 (MCF7 breast),TGI (MCF7 breast) [µM],GI50 (SW-620 colon),TGI (SW-620 colon) [µM],GI50 (RXF 393 renal),TGI (RXF 393 renal),GI50 (SF-295 CNS),TGI (SF-295 CNS) [µM],GI50 (HCT-15 colon),TGI (HCT-15 colon) [µM],GI50 (T-47D breast),TGI (T-47D breast),GI50 (SK-MEL-2 melanoma),TGI (SK-MEL-2 melanoma),GI50 (SK-OV-3 ovarian),TGI (SK-OV-3 ovarian)
Fc1ccc(-c2nn3c(COc4ccc(Cl)cc4Cl)nnc3s2)cc1Oc1ccccc1,67.1 µM,> 100,36.9 µM,> 100,18.7 µM,45.9 µM,6.2 µM,20,43.2 µM,> 100,11.6 µM,25.7 µM,,,,
Cc1cc2c(cc1Cl)N1C(=O)NS(=O)(=O)N=C1NS2(=O)=O,> 100 µM,> 100,> 100 µM,> 100,,,> 100 µM,> 100,> 100 µM,> 100,> 100 µM,> 100 µM,> 100 µM,> 100 µM,> 100 µM,> 100 µM
COc1c2ccccc2c(O)c2c(=O)ccn(C)c12,3.31 µM,11.3,16.5 µM,> 100,5.27 µM,20.3 µM,3.69 µM,27.8,3.72 µM,19.6,31.7 µM,> 100 µM,22.6 µM,> 100 µM,75.1 µM,> 100 µM
O=C(/C=C/c1ccccc1)OCC1=C[C@@H](O)[C@@H]2C=CO[C@@H](OC3OC(CO)C(O)C(O)C3O)[C@H]12 (some centres not stated),,> 100,,> 100,,> 100 µM,,> 100,,> 100,,> 100 µM,,> 100 µM,,> 100 µM
O=C(Nc1ccccc1)Nc1ccc(Cl)c(Cl)c1,3.14 µM,73.3,3.58 µM,> 100,6.31 µM,33.8 µM,2.89 µM,21.5,3.22 µM,> 100,2.57 µM,> 100 µM,2.32 µM,9.97 µM,5.52 µM,> 100 µM
COc1cc(NC(C)CCCN2C(=O)c3ccccc3C2=O)c2ncccc2c1OC (configuration not stated),10.9 µM,> 100,35.3 µM,> 100,,,21.1 µM,86.5,28.4 µM,> 100,35.7 µM,> 100 µM,29 µM,> 100 µM,> 100 µM,> 100 µM
COc1ccc(/C=C2/CN(CCC#N)C/C(=C\c3ccc(OC)cc3)C2=O)cc1,1.72 µM,> 100,2.15 µM,6.72,1.7 µM,3.29 µM,,,2.51 µM,21.8,3.76 µM,> 100 µM,2.72 µM,7.15 µM,5.24 µM,51.8 µM
FC(F)(F)c1ccc(NCc2nc3ccccc3[nH]2)cc1,21.5 µM,53.2,35.7 µM,> 100,24.4 µM,81.9 µM,18.7 µM,65.8,32.7 µM,> 100,26.5 µM,80.6 µM,20.7 µM,42.1 µM,45.5 µM,> 100 µM
CNc1ncc2cc(-c3cc(NC(=O)NCCC(C)(C)C)c(F)cc3C)c(C)nc2n1,4.98 µM and 8.58 µM,> 100,0.27 µM and 0.256 µM,> 100,1.01 µM and 0.504 µM,5.99 µM and > 6.39 µM,1.56 µM and 1.47 µM,> 100,0.407 µM and 0.429 µM,> 64.8,0.819 µM and 1.51 µM,25.1 µM and > 10 µM,0.0277 µM and 0.0426 µM,0.143 µM and 0.265 µM,0.359 µM and 0.431 µM,4.36 µM and 5.87 µM
O=c1c2cc(O)c(O)cc2oc2cc(O)c(C3OC(CO)C(O)C(O)C3O)c(O)c12 (configuration not stated),,> 100,,> 100,,> 100 µM,,> 100,,> 100,,> 100 µM,,> 100 µM,,> 100 µM
CNCCNc1nc2ccccc2c2c(=O)c3cccc(C)c3sc12,0.793 µM,1.82,0.915 µM,1.92,3.08 µM,9.72 µM,5.54 µM,12.1,1.13 µM,2.67,0.876 µM,2.25 µM,1.28 µM,3.36 µM,,
COc1cccc(/C=C\c2ccnc3ccccc23)c1,,> 10,,> 10,,> 10 µM,,> 10,,> 10,,> 10 µM,,> 10 µM,,> 10 µM
C#Cc1ccc(-n2c(/C=C/c3ccc4ccccc4c3)nc3ncccc3c2=O)cc1,2.43 µM,> 100,,,1.79 µM,5.47 µM,,,2.91 µM,> 100,3.9 µM,> 100 µM,2.41 µM,6.2 µM,7.55 µM,> 100 µM
COc1cc(/C=C/c2ccccn2)cc(OC)c1OC,,> 10,,> 10,,> 10 µM,,> 10,,> 10,,> 10 µM,,> 10 µM,,> 10 µM
COc1ccc2c(c1)C(=O)c1c-2c(N2CCN(C(=O)CCNCCNCCO)CC2)nc2ccccc12,7.27 µM,25.9,2.26 µM,5.17,,,18.8 µM,39.3,17.1 µM,33.9,13.4 µM,29.8 µM,24.1 µM,52.6 µM,15.9 µM,30.9 µM
O=C1NC(=N[C@H](CO)c2ccccc2)S/C1=C\c1ccc2ncccc2c1,4.57 µM,> 25,4.02 µM,> 20.5,4.04 µM,18.1 µM,4.69 µM,> 20,5.2 µM,> 25,4.18 µM,> 24.1 µM,5.49 µM,14.3 µM,5.11 µM,17.6 µM
C[C@H](c1ccccc1)N(CCC(=O)O)C(=O)CCN(C(=O)CCN(C(=O)CCN[C@H](C)c1ccccc1)[C@H](C)c1ccccc1)[C@H](C)c1ccccc1,> 100 µM,> 100,> 100 µM,> 100,> 100 µM,> 100 µM,> 100 µM,> 100,> 100 µM,> 100,> 100 µM,> 100 µM,> 100 µM,> 100 µM,> 100 µM,> 100 µM
